# Entries after “also recorded” stand apart in the source; their conditions may differ.
# B1: Wnt3A: recombinant Wnt3A protein used to raise Wnt signaling (protein, UniProt P56704 19-352, looked up)
# Protein Wnt-3a: SYPIWWSLAVGPQYSSLGSQPILCASIPGLVPKQLRFCRNYVEIMPSVAEGIKIGIQECQHQFRGRRWNCTTVHDSLAIFGPVLDKATRESAFVHAIASAGVAFAVTRSCAEGTAAICGCSSRHQGSPGKGWKWGGCSEDIEFGGMVSREFADARENRPDARSAMNRHNNEAGRQAIASHMHLKCKCHGLSGSCEVKTCWWSQPDFRAIGDFLKDKYDSASEMVVEKHRESRGWVETLRPRYTYFKVPTERDLVYYEASPNFCEPNPETGSFGTRDRTCNVSSHGIDGCDLLCCGRGHNARAERRREKCRCVFHWCCYVSCQECTRVYDVHTCK
# Assays:
# [1] = system: p-β-catenin^Y489; assay: Immunofluorescence staining of phosphorylated β-catenin localization in ABSCs; assay type: cell-based, mouse
# Description: (§1) Mouse and human ABSCs were fixed in […] for 15 minutes followed by permeabilization with 0.50% Triton-X for 10 minutes. Cells were blocked using serum-free protein block (Dako X090930) for one hour at room temperature and overnight primary antibody incubation. Secondary antibodies were incubated for 1 hour in darkness, washed, and mounted using Vectashield hardest mounting medium with DAPI (Vector Labs H-1500). IF images were obtained using an LSM780 or LSM880 Zeiss confocal microscope and composite images generated using Fiji.
# (§2) To determine whether the pathobiology observed in human patients can be modeled in vitro, mouse ABSCs (mABSCs) were treated with GSK3β inhibitor CHIR99021 (CHIR) under submerged culture conditions for 4 days to activate canonical Wnt signaling (FIG. 2A).
# [2] = system: human ABSCs; assay: Air-liquid interface (ALI) differentiation assay with human ABSCs; assay type: cell-based; conditions: human ABSCs, treated for 21 days
# Description: (§3) 24-well 6.5 mm transwells with 0.4 μm pore polyester membrane inserts were coated with 0.2 mg/mL collagen type I dissolved in 60% ethanol and allowed to air dry. ABSCs were seeded at 100,000 cells per well and allowed to grow in the submerged phase of culture for 4-5 days with 500 μl media in the basal chamber and 200 μl media in the apical chamber. ALI cultures were then established and culture with only 500 μl media in the basal chamber, and cultures harvested at varying timepoints for immunofluorescence studies. Media was changed every other day and cultures were maintained at 37° C. and 5% C02. ABSCs were treated with the indicated concentrations of GSK3XV (Sigma 361558), CHIR or WIC1.
# as §1
# To assess whether WIC1 could reverse Wnt/β-catenin-induced ABSC hyperproliferation, human ABSCs were treated with either DMSO, CHIR, or CHIR+WIC1. […] It was then sought to determine if WIC1 could promote ABSC differentiation to ciliated cells under ALI conditions.
# [3] = system: Trp63; assay: Trp63 expression with CHIR and WIC1 treatment (FIG. 4F); assay type: cell-based; conditions: CHIR treatment
# Description: (§4) RNA was isolated with the RNeasy Mini Kit (Qiagen 74104) following manufacturer's protocol and quantified using a NanoDrop Spectrophotometer (ThermoFisher). cDNA synthesis was performed using the TaqMan Reverse Transcription Reagents (ThermoFisher) as indicated by the company. qPCR was then performed using the TaqMan PCR Master Mix (Applied Biosystems) on the StepOne-Plus Real Time PCR System.
# [4] = system: TP63; assay: qRT-PCR of TP63 expression in BEAS2B cells; assay type: cell-based, human; conditions: addition of CHIR
# Description: as §4
# [5] = system: mouse ABSCs (mABSCs); assay: Air-liquid interface (ALI) differentiation assay with mouse ABSCs; assay type: cell-based
# Description: as §3
# Mouse ABSCs were grown in MTEC Plus media and MTEC serum-free media during the submerged and ALI phases of culture, respectively. MTEC base media is DMEM/Ham's F12 50/50 (Corning 15090CV). Table S1 and Table S2 indicate the media components and concentrations for MTEC Plus and MTEC serum-free media, respectively.
# as §1, with “Fiji. […]” for “Fiji.”
# [6] = system: mouse ABSCs (mABSCs); assay: EdU proliferation assay in mouse ABSCs, submerged culture; assay type: cell-based; conditions: submerged culture 4 days; for mABSC proliferation (EdU incorporation): 1 μM CHIR + 1 μM inhibitor
# Description: Mouse and human ABSCs were isolated following a previously published method. Briefly, mouse tracheas were dissected, cleaned, and incubated in 16 U/mL dispase for 30 minutes (1 hour for human) at room temperature. Tracheas were then incubated in 0.5 mg/mL DNase for another 30 minutes (1 hour for human) at room temperature. Epithelium was stripped and incubated in 0.1% Trypsin-EDTA for 30 minutes (1 hour for human) shaking at 37° C. to generate a single cell suspension. Isolated cells were passed through a 40 μm strainer and stained with fluorophore-conjugated antibodies against ITGA6 and TROP2. ITGA6+ TROP2+ cells were obtained via FACS that was completed using the BD FACSAria cell sorter.
# In vitro proliferation was studied using the Click-iT EdU incorporation assay kit (Invitrogen C10337) following the company's protocol. Briefly, mouse and human AB SC cultures were treated with 10 μM EdU 6-8 hours prior to commencing IFs. Cells were fixed with […] for 15 minutes followed by permeabilization in 0.5% Triton-X for 20 minutes. EdU cocktail was incubated for 30 minutes in darkness followed by immunocytochemistry.
# as §2
# [7] = system: BEAS2B cells; assay: Cell Titer Glo toxicity assay in BEAS2B cells; assay type: cell-based, human; conditions: various concentrations
# Description: (§5) For luciferase reporter assays conducted outside of the high-throughput drug screen, BEAS2B cells were seeded in a 96-well plate at 20,000 cells per well. The following day, cells were with treated DMSO, 5 μM CHIR99021 (CHIR; Tocris 4423), or 5 μM CHIR plus WIC2 (Key Organics GP-0355), Coumarin (Sigma C4261), or WIC1 for 24 hours. Lysis reactions were conducted using BrightGlo (Promega E1910) and incubated for two minutes at room temperature prior to transferring luminescence reactions to white-bottom, white-walled 96-well plates (Costar). Toxicity assays were conducted by adding Cell Titer Glo reagent (Promega) following manufacturer's protocol. Luminescence readings were conducted using the Clariostar plate reader.
# [8] = system: TCF/LEF luciferase reporter; assay: TCF/LEF luciferase reporter assay in transduced BEAS2B cells (CHIR-induced); assay type: cell-based, human; conditions: 10 nM, WIC1, MSAB, LF3, ICG001 compared
# Description: BEAS2B cells (ATCC CRL-9609) were seeded in a 6-well plate and infected with Cignal lentiviral particles containing a TCF/LEF luciferase reporter (Qiagen CLS-018L). Cells were spin infected at 37° C. for one hour using a multiplicity of infection of 20. Cells were selected with 0.6 μg/mL puromycin to isolate stably expressing clones.
# as §5
# In light of the finding that Wnt/β-catenin signaling drives ABSC hyperproliferation, a small molecule inhibitors of the pathway that could restore airway homeostasis. A high-throughput drug screen was established to identify compounds capable of reducing TCF/LEF activity measured by a luciferase reporter induced by CHIR treatment in a 384-well format (FIG. 3A). Briefly, white-bottom 384-well plates (Greiner One) were precoated overnight with 0.01 mg/mL fibronectin from human plasma (Sigma F0895), 0.03 mg/mL rat tail collagen type I (Corning 354249), and 0.01 mg/mL BSA (ThermoFisher BP-9706) diluted in 50 uL of Airway Epithelial Cell Growth Medium (PromoCell C21060). Precoat was then aspirated and washed using 100 μL the BioTek EL406. A custom V&P pin tool mounted to a Beckman FX liquid handler was then used to pin […] of 10 mM stock compound. 2,000 BEAS2B cells per well were then seeded using the Multidrop. Cells were therefore treated with 1% DMSO, 5 μM CHIR, or 5 μM CHIR+10 μM pinned compound and incubated for 24 hours at 37° C. and 5% CO2. […] 25 μL BrightGlo (Promega) was subsequently added to each well using the BioTek EL405 and incubated for 2 minutes prior reading luminescence values with the Envision plate reader (FIG. 3B). […] Z′ factor values were used to assess assay quality and was calculated by: Z′=1-3(SD Total+SDBackground)/(MeanTotal−MeanBackground) where SDTotal and MeanTotal are the standard deviation and mean of signal for CHIR-treated wells, and SDBackground and MeanBackground are the standard deviation and mean of signal for DMSO-treated wells. The Z′ factor value was calculated to be 0.82.
# [9] = system: TCF/LEF luciferase reporter; assay: TCF/LEF (TOPFLASH) luciferase reporter in mABSCs; assay type: cell-based, mouse; conditions: vs DMSO-treated cultures
# Description: mABSCs were seeded in a 6-well transwell plate and transiently transfected with […] of the TOPFLASH luciferase reporter and […] Renilla Luciferase reporter vector pRL-TK for internal control (Promega). Transfections were conducted using Lipofectamine 2000 Transfection Reagent (ThermoFisher 11668030) following the manufacturer's protocol.
# as §2
# [10] = mABSCs, ALI, GSK3β inhibitor vs DMSO
# [11] = mABSCs, ALI, 100 nM inhibitor vs DMSO
# [12] = mABSCs, ALI, 1 μM inhibitor vs DMSO
molecule,measurement,setting,value
"Cc1c[nH]c(-c2cnc(NCCNc3ccc(C#N)cn3)nc2-c2ccc(Cl)cc2Cl)n1 [CHIR, CHIR99021]",Nuclear p-β-catenin^Y489,[1]; compound alone vs DMSO,increase in nuclear p-β-cateninY489; also recorded: increased nuclear p-β-catenin^Y489; also recorded: induced nuclear localization of p-β-catenin^Y489
same,"Localization of other phosphorylated forms of β-catenin (Y654, S552, S33,S37,T41)","[1]; mouse ABSCs, submerged phase of culture",remained primarily cytoplasmic or membranous
same,Differentiation to the ciliated cell fate,[2],abolished differentiation to the cilated cell fate
same,Pool of ABSCs,[2],increased pool for ABSCs
same,Trp63 expression,[3],induction of Trp63 expression
same,TP63 expression,[4],increase in TP63 expression
same,Percentage of ciliated cells,[5]; [10],significant reduction in the percentage of ciliated cells
same,Pool of K5+ mABSCs,[5]; [10],increased pool of K5+ mABSCs
same,ABSC morphology,"[5]; mABSCs, ALI, vs DMSO",clumping morphology reminiscent of PMLs; also recorded: dose-dependent heaping morphology that resembles the PMLs
same,mABSC proliferation (EdU),[6]; compound alone vs DMSO,statistically significant increase in proliferation; also recorded: statistically significant increased proliferation
COC(=O)c1cccc(NS(=O)(=O)c2ccc(C)cc2)c1 [MSAB],Toxicity by Cell Titer Glo,[7],dose dependent toxicity
same,Proportion of ciliated cells,[5]; [11],neither 100 nM nor 1 μM MSAB increased differentiation to the ciliated cell fate
same,Percentage of ciliated cells,[5]; [12],neither 100 nM nor 1 μM MSAB increased differentiation to the ciliated cell fate
same,mABSC proliferation (EdU incorporation),[6],decreased mABSC proliferation to a similar degree
same,"TCF/LEF activity, inhibitor comparison",[8],only inhibitor that decreased TCF/LEF activity at 10 nM
O=C1[C@H](Cc2ccc(O)cc2)N2C(=O)CCN(C(=O)NCc3ccccc3)[C@H]2CN1Cc1cccc2ccccc12 [ICG001],Toxicity by Cell Titer Glo,[7],dose dependent toxicity
same,Proportion of ciliated cells,[5]; [11],induced a greater proportion of ciliated cells
same,Percentage of ciliated cells,[5]; [12],no effect on the percentage of ciliated cells
same,mABSC proliferation (EdU incorporation),[6],decreased mABSC proliferation to a similar degree
B1,TCF/LEF activity measured by a luciferase reporter,[9],increased TCF/LEF activity
same,Proportion of ciliated cells,"[5]; ALI conditions, 100 ng/mL",increased the proportion of ciliated cells
same,K5+ mABSCs,"[5]; ALI conditions, 500 ng/mL",K5+ mABSC expansion
same,Proportion of ciliated cells,"[5]; ALI conditions, 500 ng/mL",produced fewer ciliated cells
